# Measurements: patent US10227361B2, “Fused imidazobenzothiazole compounds” (TORRENT PHARMACEUTICALS LIMITED, priority 2014, dated 2019)
# What was measured:
# [1] = target: T1, purified recombinant human p38 alpha MAPK (Homo sapiens, UniProt Q16539); assay: Inhibition of p38 alpha MAPK activity: TR-FRET kinase assay; type: biochemical; conditions: read-out: P38α Inhibition
# T1 construct: purchased Millipore, USA
# Description: Inhibition of p38 Alpha MAPK Activity: Time-Resolved Fluorescence Resonance Energy Transfer Kinase Standard Assay (TR-FRET Assay)
# Compounds of present invention at various concentrations were premixed with DMSO. The experiment was initiated by mixing 0.5% 1.0% DMSO as vehicle/compounds with purified recombinant human p38 alpha MAPK (Millipore, USA) in the wells and 15 min incubation at RT. Thereafter, 30 nM of Biotinylated GST-ATF2 (Activation Transcription Factor2) and 100 μM of ATP were added in to the wells containing reaction mixture, followed by reincubation for 60 minutes at RT. Reaction was terminated by addition of 10 mM of EDTA and detection reagent containing anti-phosphothreonine ATF2 antibody (Perkin Elmer, USA) labelled with europium chelate and APC (Allophycocyanin) labeled streptavidin, into the reaction mixture which was further incubated for 60 minutes at room temperature. The degree of phosphorylation of the substrate (GST-ATF2) was measured using Envision multimode reader (Perkin Elmer). Percentage inhibition of p38 kinase activity was calculated by determining ratio of specific europium 665 nm energy transfer signal to reference 615 nm signal.
# [2] = test system: tobacco smoke induced airway inflammation in mice; assay: Acute mouse model of tobacco smoke induced airway inflammation (BALF neutrophils); type: in vivo; conditions: BAL fluid, exposure 25 minutes; for Neutrophil (*10^3 cells/animal): Mean ± SEM
# Description: The tobacco smoke induced airway inflammation model is used for in vivo efficacy of compound. Many investigators have used acute tobacco smoke (TS) exposure in rodents as models of airway inflammation for quick screening of anti-inflammatory therapies for COPD (J Pharmacol Exp Ther. 2008; 324(3):921-9; J Pharmacol Exp Ther. 2010; 332(3):764-75; Journal of Inflammation 2013, 10(Suppl 1):31 and Eur Respir J Suppl 2006; 663s:3850). Given its position as predominant cause of COPD, animal models using TS exposure would appear to be the logical choice for investigation (Respir Res. 2004; 2; 5:18).
# A: Efficacy Studies in Acute Mouse Model of Airway Inflammation
# Mice were exposed to tobacco smoke (TS) in an acrylic chamber. Animals were exposed to TS from 8, 12, 16 cigarettes on day1, day2, day 3 respectively. From day 4 onwards till day 11, animals were exposed to TS from 20 cigarettes per day. On 11 days of exposure of mice to TS, significant inflammatory cell recruitment, predominantly neutrophils, to lungs was observed as compared to air exposed control mice (BALF neutrophil levels, nil in air control group vs 93.8±11.7*10^3 cells/animal in smoke exposed vehicle group).
# Lung delivery of test compound was achieved by whole body aerosol exposure for 25 minutes in a chamber. Mice were divided in different dose groups and exposed in a chamber for 25 minutes with vehicle or Compound No. 22 (0.3 mg/ml) or Compound No. 22 (3 mg/ml)) or Compound No. 31 (0.3 mg/ml) or Compound No. 31 (1.0 mg/ml). A total quantity of 3.5 ml of either vehicle or test compound formulation (suspension formulation with D90<5μ, with Malvern Mastersizer®) was nebulized in a chamber to respective groups over 25 mins period. Test compounds were administered 2 hr prior to TS exposure from day 6 to day 11. Bronchoalveolar lavage (BAL) was performed 24 hr post last TS exposure.
# Trachea of animal was cannulated using catheter. Phosphate Buffer Saline (PBS) was used as lavage fluid. A volume of 0.5 ml was gently instilled and withdrawn and collected in microcentrifuge tube placed on ice. This procedure was repeated further 2 times.
# (§1) Lavage fluid was separated from cells by centrifugation and supernatant separated. The cell pallet was resuspended in known volume of PBS. Cells in aliquot were stained using Turk solution and total cell numbers were calculated by counting Turk stained aliquot under microscope using haemocytometer.
# (§2) The residual cell suspension was resuspended and slides prepared using cyto centrifuge technique (Cytospin 4, Thermo Shandon). The slides were then fixed with methanol, air dried and stained with May Grunwald Giemsa stain. Up to 300 cells were counted and differentiated using standard morphometric techniques under light microscopy.
# All results are presented at individual data for each animal and mean value calculated for each group. Percentage inhibition for the neutrophil was calculated for Compound No. 22 & 31 treatment group against vehicle group.
# [3] = test system: tobacco smoke (TS) and LPS induced chronic COPD model in guinea pigs; assay: Chronic model of COPD in guinea pigs (TS and LPS, 18 weeks); type: in vivo
# Description: (II) Efficacy Studies in Chronic Model of COPD in Guinea Pigs
# Guinea pigs were exposed to tobacco smoke (TS) and LPS in an acrylic chamber. Exposure to TS and LPS is given in the manner as illustrated in FIG. 3 in a week for a total of 18 weeks.
# Lung delivery of test material was achieved by whole body aerosol exposure for 75 minutes in a chamber. Guinea pig were divided in different dose groups and exposed to vehicle or Compound No. 31 (2 mg/ml). A total quantity of 7.0 ml of either vehicle or Compound No. 31 (suspension formulation with D90<5μ, with Malvern Mastersizer®) was nebulized in chambers to respective groups over 75 mins period. Compound No 31 was administered 2 hr prior to TS/LPS exposure once daily from week 9 to week 18. Control animals were exposed to room air instead of TS and PBS instead of LPS. Lung function and bronchoalveolar lavage (BAL) for each animal was performed 24 hr post last TS exposure.
# Lung function assessment in anesthetized and tracheotomized animal was carried out using PFT maneuvers (BUXCO, USA) for determination of various parameters such as Functional Residual Capacity (FRC), Residual volume (RV), Pressure volume and flow volume relationships.
# Trachea of animal was cannulated using catheter. Phosphate Buffer Saline (PBS) was used as lavage fluid. A volume of 5.0 ml was gently instilled and withdrawn and collected in microcentrifuge tube placed on ice. This procedure was repeated further 5 times.
# as §1, §2
# After collection of BALF lung was fixed under constant pressure using neutral buffered formaline, which is to be used further for histopathological analysis. Hematoxylin and eosin stained slides were used for assessment of lung inflammatory cell influx and alveolar & epithelial inflammatory changes. Periodic acid-Schiff-diastase stained slides were used to evaluate mucin secreting cells and Masson's trichome stained slides were used for assessment of collagen fibers in parenchyma.
# All results are presented at individual data for each animal and mean value calculated for each group. Percentage inhibition for the neutrophil was calculated for compound no 31 group against vehicle group.
# [4] = test system: tobacco smoke induced airway inflammation in guinea pig; assay: Acute guinea pig model of tobacco smoke induced airway inflammation (BALF neutrophils); type: in vivo, Guinea pigs; conditions: BAL fluid, 6 mg/ml aerosol, exposure 75 minutes
# Description: B. (I) Efficacy Studies in Acute Guinea Pig Model of Airway Inflammation
# Guinea pigs were exposed to tobacco smoke (TS) in an acrylic chamber. Animals were exposed to TS from 5, 10, 15 cigarettes on day 1, day 2, day 3 respectively. From day 4 onwards till day 11, animals were exposed to TS from 15 cigarettes per day. On 11 days of exposure of guinea pig to TS, significant inflammatory cell recruitment, predominantly neutrophils, to lungs was observed as compared to air exposed control guinea pig (BALF neutrophil levels, 0.23±0.052*10^6 cells/animal in air control group vs 3.5±0.62*10^6 cells/animal in smoke exposed vehicle group).
# Lung delivery of test compound was achieved by whole body aerosol exposure for 75 minutes in a chamber. […] A total quantity of 7.0 ml of either vehicle or test compound formulation (suspension formulation with D90<5μ, with Malvern Mastersizer®) was nebulized in chambers to respective groups over 75 mins period. […]
# Lavage fluid was separated from cells by centrifugation and supernatant separated. […] Cells in aliquot were stained using Turk solution and total cell numbers were calculated by counting Turk stained aliquot under microscope using haemocytometer. […]
# All results are presented at individual data for each animal and mean value calculated for each group. Percentage inhibition for the neutrophil was calculated for Compound No 31 treatment group against vehicle group.
# [5] = rheumatoid arthritis; possibly; cited from earlier work
# [6] = rheumatoid arthritis patients; single low dose tested; compared to placebo; cited from earlier work
# [7] = dogs, 6-month safety study; cited from earlier work
# [8] = treated up to 12-24 weeks; cited from earlier work
# T1 sequence (Q16539 whole entry): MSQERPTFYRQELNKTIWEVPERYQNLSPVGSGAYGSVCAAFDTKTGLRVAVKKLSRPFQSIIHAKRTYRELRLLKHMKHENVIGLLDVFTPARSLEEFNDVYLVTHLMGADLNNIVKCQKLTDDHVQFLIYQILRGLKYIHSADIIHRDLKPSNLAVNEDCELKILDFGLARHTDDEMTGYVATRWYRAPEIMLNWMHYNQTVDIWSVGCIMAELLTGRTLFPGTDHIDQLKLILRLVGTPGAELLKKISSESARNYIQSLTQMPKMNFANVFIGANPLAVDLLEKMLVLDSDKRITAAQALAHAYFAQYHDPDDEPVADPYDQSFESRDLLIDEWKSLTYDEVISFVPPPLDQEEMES
smiles,measurement,setting,value
"CC(C)(C)c1cc(NC(=O)NCc2ccccc2Oc2ccc3c(c2)sc2ncc(CO)n23)n(-c2ccc(O)c(Cl)c2)n1 [Compound 22, 1-[3-tert-butyl-1-(3-chloro-4-hydroxyphenyl)-1H-pyrazol-5-yl]-3-(2-{[3-(hydroxymethyl)imidazo[2,1-b][1,3]benzothiazol-7-yl]oxy}benzyl)urea]",inhibition at 1 µM,[1]; Concentration 1 μM,80 to 100%
same,"% Inhibition (neutrophil, against vehicle group)",[2]; 0.3 mg/ml aerosol,24%
same,Neutrophil (*10^3 cells/animal),[2]; 0.3 mg/ml aerosol,71.2 ± 13.6 *10^3 cells/animal
same,"% Inhibition (neutrophil, against vehicle group)",[2]; 3 mg/ml aerosol,62%
same,Neutrophil (*10^3 cells/animal),[2]; 3 mg/ml aerosol,35.2 ± 3.7 *10^3 cells/animal
"COCc1cnc2sc3cc(Oc4ccccc4CNC(=O)Nc4cc(C(C)(C)C)nn4-c4ccc(O)c(Cl)c4)ccc3n12 [Compound 31, 1-[3-tert-butyl-1-(3-chloro-4-hydroxyphenyl)-1H-pyrazol-5-yl]-3-(2-{[3-(methoxymethyl)imidazo[2,1-b][1,3]benzothiazol-7-yl]oxy}benzyl)urea]","% inhib^n (neutrophil, against vehicle group)","[3]; guinea pig chronic COPD model, BALF, 2 mg/ml aerosol, 75 minutes",52%
same,Neutrophil (*10^6cells),"[3]; guinea pig chronic COPD model, BALF, 2 mg/ml aerosol, 75 minutes, once daily week 9 to 18, Mean ± SEM",3.3 ± 0.71 *10^6cells
same,Composite score (Range),"[3]; lung remodeling, histopathological analysis of lung tissue, 2 mg/ml",0.4 (0.1 to 0.5)
same,Average number of mucin secreting cells/10 high power field (Range),"[3]; mucus secretion, 2 mg/ml",301 (190-420) cells/10 high power field
same,"% Inhibition (neutrophil, against vehicle group)",[4],48%
same,Neutrophil (*10^6 cells/animal),[4]; Mean ± SEM,1.8 ± 0.28 *10^6 cells/animal
same,inhibition at 0.1 µM,[1]; Concentration 100 nM,80 to 100%
same,"% Inhibition (neutrophil, against vehicle group)",[2]; 0.3 mg/ml aerosol,60%
same,Neutrophil (*10^3 cells/animal),[2]; 0.3 mg/ml aerosol,40.3 ± 6.2 *10^3 cells/animal
same,"% Inhibition (neutrophil, against vehicle group)",[2]; 1.0 mg/ml aerosol,80%
same,Neutrophil (*10^3 cells/animal),[2]; 1.0 mg/ml aerosol,20.4 ± 3.8 *10^3 cells/animal
Cc1ccc(-n2nc(C(C)(C)C)cc2NC(=O)Nc2ccc(OCCN3CCOCC3)c3ccccc23)cc1 [BIRB-796],reason for withdrawal from Phase II clinical trials,[5],liver enzyme elevations
O=c1ncn2nc(Sc3ccc(F)cc3F)ccc2c1-c1c(Cl)cccc1Cl [Vx-745],clinical benefit,[6],significant clinical benefit compared to placebo
same,toxicity in safety study,[7],undisclosed CNS toxicity
Cc1c(F)cc(C(=O)NC2CC2)cc1-c1ccc(C(=O)NCC(C)(C)C)cn1 [Losmapimod],tolerability in clinical studies,[8],well tolerated
CNC(=O)c1ccc(C)c(-n2c(C)cc(OCc3ccc(F)cc3F)c(Br)c2=O)c1 [PH-797804],tolerability in clinical studies,[8],well tolerated
